{
  "source": "patent EP1157002B1",
  "about": "“1,2,3,4-TETRAHYDRO-1-NAPHT[…] USEFUL IN THERAPY” (Pfizer Limited, priority 1999, dated 2000)",
  "biological_target": "T1, human serotonin transporter (hSERT) (Homo sapiens, UniProt P31645)",
  "T1 construct": "expressed in transfected cells; host or cells: HEK-293 (human embryonic kidney cells), stably transfected",
  "T1 sequence (P31645 whole entry)": "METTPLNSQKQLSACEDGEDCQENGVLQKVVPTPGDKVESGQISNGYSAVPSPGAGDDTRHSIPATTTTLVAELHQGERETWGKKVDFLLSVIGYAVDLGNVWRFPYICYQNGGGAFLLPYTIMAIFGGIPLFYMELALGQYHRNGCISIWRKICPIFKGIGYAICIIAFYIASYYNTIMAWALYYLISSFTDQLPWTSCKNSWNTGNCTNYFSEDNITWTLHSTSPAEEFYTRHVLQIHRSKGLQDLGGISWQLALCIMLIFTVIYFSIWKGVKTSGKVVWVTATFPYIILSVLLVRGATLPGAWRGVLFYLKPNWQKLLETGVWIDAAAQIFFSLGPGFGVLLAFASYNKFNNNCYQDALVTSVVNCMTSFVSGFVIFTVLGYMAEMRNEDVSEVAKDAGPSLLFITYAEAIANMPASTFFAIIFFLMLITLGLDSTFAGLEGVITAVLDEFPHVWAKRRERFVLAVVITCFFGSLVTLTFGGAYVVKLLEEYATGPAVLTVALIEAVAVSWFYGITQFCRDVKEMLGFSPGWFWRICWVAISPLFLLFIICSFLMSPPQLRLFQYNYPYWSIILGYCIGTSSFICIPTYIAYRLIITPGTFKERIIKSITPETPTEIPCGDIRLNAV",
  "assay": "Test A: uptake of 3H-serotonin into human embryonic kidney cells (HEK-293) expressing the human serotonin transporter",
  "type": "cell-based",
  "method": "Uptake of ^3H-biogenic amines into human embryonic kidney cells expressing the human serotonin (5-HT), noradrenalin or dopamine transporter\nHuman embryonic kidney cells (HEK-293) stably transfected with either the human serotonin transporter (hSERT), noradrenalin transporter (hNET) or dopamine transporter (hDAT) were cultured under standard cell culture techniques (cells were grown at 37°C and 5% CO2 in DMEM-culture media (supplemented with 10% dialysed foetal calf serum (FCS), 2mM 1-glutamine and 250µg/ml geneticin)). Cells were harvested for the assay to yield a cell suspension of 750,000 cells/ml.\nAssays were carried out in 96-well filter bottom plates. Cells (7500 cells/assay well) were pre-incubated in standard assay buffer containing either test compound, standard inhibitor or compound vehicle (1% DMSO) for 5 minutes. Reactions were started by addition of either ^3H-Serotonin, ^3H-Noradrenaline or ^3H-Dopamine substrates. All reactions were carried out at room temperature in a shaking incubator. Incubation times were 5 minutes for the hSERT and hDAT assays and 15 minutes for the hNET assay. Reactions were terminated by removal of the reaction mixture using a vacuum manifold followed by rapid washing with ice cold assay buffer. The quantity of ^3H-substrate incorporated into the cells was then quantified.\nAssay plates were dried in a microwave oven, scintillation fluid added, and radioactivity measured. Potency of test compounds was quantified as IC50 values (concentration of test compound required to inhibit the specific uptake of radiolabelled substrate into the cells by 50%).\nStandard Assay Buffer Composition: • Trizma hydrochloride (26mM) • NaCl (124mM) • KCl (4.5mM) • KH2PO4 (1.2mM) • MgCl2.6H2O (1.3mM) • Ascorbic acid (1.136mM) • Glucose (5.55mM) • pH 7.40 • CaCl2 (2.8mM) • Pargyline (100µM)\nNote: The pH of the buffer was adjusted to 7.40 with 1M NaOH before addition of CaCl2 and pargyline.",
  "key": {"[1]": {"settings": "inhibition of the up-take of serotonin by human serotonin transporters, HEK-293 hSERT cells, 3H-5HT (50nM), incubation 5 minutes, room temperature, read-out: IC50 value"}},
  "note": "Counter-ions that a name gives are not always drawn. Like-named read-outs stand apart in the source and are kept apart here.",
  "data": [
    {"smiles": "CN[C@H]1CC[C@@H](c2ccc(Cl)c(Cl)c2)c2ccc(-c3ncn[nH]3)cc21", "note": "[Example 55, Cis-(1S)-N-methyl-7-(3-(1,2,4-triazolyl))-4-(3,4-dichlorophenyl)-1,2,3,4-tetrahydro-1-naphthalenamine hydrochloride]", "values": [
      {"measurement": "IC50", "setting": "[1]", "value": "≤ 100", "unit": "nM"}
    ]},
    {"smiles": "CN[C@H]1CC[C@@H](c2ccc(Cl)c(Cl)c2)c2ccc(CS(C)(=O)=O)cc21", "note": "[Example 74, Cis-(1S)-N-methyl-7-((methylsulphonyl)methyl)-4-(3,4-dichlorophenyl)-1,2,3,4-tetrahydro-1-naphthalenamine]", "values": [
      {"measurement": "IC50", "value": "≤ 100", "unit": "nM"}
    ]},
    {"smiles": "CN[C@H]1CC[C@@H](c2ccc(Cl)c(Cl)c2)c2ccc(-c3ncnn3C)cc21", "note": "[Example 56, Cis-(1S)-N-methyl-7-(3-(N(2)methyl-1,2,4-triazolyl)-4-(3,4-dichlorophenyl)-1,2,3,4-tetrahydro-1-naphthalenamine hydrochloride]", "values": [
      {"measurement": "IC50", "setting": "[1]", "value": "≤ 100", "unit": "nM"}
    ]},
    {"smiles": "CN[C@H]1CC[C@@H](c2ccc(Cl)c(Cl)c2)c2ccc(CNC(N)=O)cc21", "note": "[Example 37, Cis-(1S)-N-methyl-7-((N-aminocarboxy)aminomethyl)-4-(3,4-dichlorophenyl)-1,2,3,4-tetrahydro-1-naphthalenamine hydrochloride]", "values": [
      {"measurement": "IC50", "setting": "[1]", "value": "≤ 100", "unit": "nM"}
    ]}
  ]
}
